Test results as given in PMC4085797, “Synthetic Inositol Phosphate Analogs Reveal that PPIP5K2 Has a Surface-Mounted Substrate Capture Site that Is a Target for Drug Discovery” (Chemistry & Biology, 2014).
Changes are numbered by the printed parent chain.

Key:
Format in all cases: biochemical
human PPIP5K2^KD = molecular target: T1, human PPIP5K2^KD (Homo sapiens, UniProt O43314); test: HPLC assay of [3H]InsP6 phosphorylation (InsP6 kinase activity)
T1 construct: The kinase domain of human PPIP5K2 (PPIP5K2^KD; residues 1–366); made in house
T1 sequence (O43314 1-366): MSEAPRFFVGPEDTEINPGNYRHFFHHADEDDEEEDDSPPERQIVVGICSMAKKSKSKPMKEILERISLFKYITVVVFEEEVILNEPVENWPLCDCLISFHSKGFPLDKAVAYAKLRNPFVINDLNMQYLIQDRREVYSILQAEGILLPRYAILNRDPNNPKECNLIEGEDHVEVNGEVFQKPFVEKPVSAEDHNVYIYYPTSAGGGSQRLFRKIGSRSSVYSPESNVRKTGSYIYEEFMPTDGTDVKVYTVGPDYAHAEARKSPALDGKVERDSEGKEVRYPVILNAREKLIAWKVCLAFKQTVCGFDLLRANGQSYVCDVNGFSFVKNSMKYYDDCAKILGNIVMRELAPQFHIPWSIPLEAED
Experimental: (§1) The initial InsP6 concentration was either 500 nM, 70 nM, or 40 nM. Various concentrations of 2,5-di-O-Bn-InsP4 were present as indicated. Radioactivity was assessed using an in-line Flo1 detector. The ADP-driven dephosphorylation of 100 nM 1,5-[PP]2-InsP4 by PPIP5K2^KD was usually determined by a luminescence-based assay of ATP accumulation ([Riley et al., 2012; Weaver et al., 2013]). The IC50 values were determined using GraphPad Prism v6.02 (n ≥ 3). In some experiments, 1,5-[PP]2-[^3H]InsP4 dephosphorylation by PPIP5K2^KD was assayed in 50 μl buffer containing 50 mM KCl, 20 mM HEPES pH 7.0, 7 mM MgSO4, 5 mM ADP, 1 mM EDTA. Reactions were then quenched, neutralized, and analyzed with HPLC using a Partisphere SAX column ([Weaver et al., 2013]); 1 ml fractions were collected for liquid scintillation spectrometry. The ATPase activity of PPIP5K2^KD (10–270 μg/ml) was assayed from Pi release following incubation at 37°C for 120–180 min in 20 μl reaction mixtures containing 20 mM Tris/HCl, pH 7.5, 10 mM ATP, 100 mM KCl, 0.1 mM EDTA, and 13 mM MgCl2.
S1, related to Figure 4. 2,5-Di-O-Bn-InsP4 (10) inhibits both ADP-driven [PP]2-[3H]InsP4 dephosphorylation and ATP-driven [3H]InsP6 phosphorylation by PPIP5K2 […]
E:Incubation buffers (see Methods) contained 500 nM [3H]InsP6 plus either 12.5 ng PPIP5K2 KD (panel D) or 30 ng PPIP5K2KD plus 1.5 μM 2,5-di-O-Bn-InsP4 (10) (panel E). Reactions rates in the absence and presence of 2,5-di-O-Bn-InsP4 (10) were calculated to be 52 and 21 nmol/mg protein/min, respectively. […]

PPIP5K2^KD K103A mutant = molecular target: T2, PPIP5K2^KD K103A mutant (Homo sapiens, UniProt O43314, K103A); test: ATPase activity of K103A mutant; conditions: Figures 7B and 7C
T2 construct: The kinase domain of human PPIP5K2 (PPIP5K2^KD; residues 1–366); made in house
T2 sequence (O43314 1-366 K103A): T1 sequence (O43314 1-366) with K103A
Experimental: as §1
Protein Expression, Purification, Crystallization and Structure Determination […]
The structure was further manually rebuilt with COOT and refined with PHENIX and
REFMAC from the CCP4 package. Ligand topology and parameter files were prepared using
the PRODRG server. The molecular graphics representations were prepared with the program […]

[1] = molecular target: T3, PPIP5K2^KD (kinase domain of human PPIP5K2) (Homo sapiens, UniProt O43314); test: HPLC analysis of 1,5-[PP]2-[3H]InsP4 dephosphorylation; conditions: 2 μM analog, 200 nM 1,5-[PP]2-[3H]InsP4, 20 min; rate in absence 192
T3 construct: The kinase domain of human PPIP5K2 (PPIP5K2^KD; residues 1–366); made in house
T3 sequence (O43314 1-366): T1 sequence (O43314 1-366)
Experimental: as §1
S1, related to Figure 4. 2,5-Di-O-Bn-InsP4 (10) inhibits both ADP-driven [PP]2-
[3H]InsP4 dephosphorylation and ATP-driven [3H]InsP6 phosphorylation by PPIP5K2 […]
Bn-InsP4 (10) (panel C). After 20 min reactions were quenched and analyzed by HPLC […]
O-Bn-InsP4 (10) were calculated to be 192 and 95 nmol/mg protein/min, respectively. […]

Row | reaction rate of [3H]InsP6 phosphorylation in the presence of analog (human PPIP5K2^KD; 1.5 μM analog, 500 nM [3H]InsP6, rate in absence 52) [nmol/mg protein/min] | nature of inhibition of InsP6 kinase activity (human PPIP5K2^KD; Dixon plot, Figure 4C) | Ki (human PPIP5K2^KD; Figure 4C, read-out: Ki, inhibition of InsP6 kinase activity (Dixon plot)) [nM] | IC50 (human PPIP5K2^KD; [InsP6] = 500 nM, read-out: IC50, inhibition of InsP6 phosphorylation) [nM] | analog-activated ATPase activity compared to wild-type enzyme (in words) (PPIP5K2^KD K103A mutant) | reaction rate of [PP]2-[3H]InsP4 dephosphorylation in the presence of analog [1] [nmol/mg protein/min] | SMILES
1 | 21 | competitive | 240 | 1000 | only a slight reduction | 95 | O=P(O)(O)O[C@@H]1[C@@H](OCc2ccccc2)[C@H](OP(=O)(O)O)[C@@H](OP(=O)(O)O)[C@@H](OCc2ccccc2)[C@H]1OP(=O)(O)O [compound 10, 2,5-di-O-Bn-InsP4]
2 | – | – | – | – | only a slight reduction | – | O=C(CP(=O)(O)O)O[C@@H]1[C@@H](OP(=O)(O)O)[C@H](OP(=O)(O)O)[C@H](OCc2ccccc2)[C@H](OP(=O)(O)O)[C@H]1OP(=O)(O)O [compound 2, 2-O-benzyl-5-O-α-phosphonoacetyl-myo-inositol 1,3,4,6-tetrakisphosphate]
